# Changes are numbered by the printed parent chain.
# Assays:
# [1] = target: T1, Rhizobium etli pyruvate carboxylase (RePC) (Rhizobium etli, UniProt Q2K340); assay: coupled spectrophotometric assay; format: biochemical
# T1 sequence (Q2K340 1-1154): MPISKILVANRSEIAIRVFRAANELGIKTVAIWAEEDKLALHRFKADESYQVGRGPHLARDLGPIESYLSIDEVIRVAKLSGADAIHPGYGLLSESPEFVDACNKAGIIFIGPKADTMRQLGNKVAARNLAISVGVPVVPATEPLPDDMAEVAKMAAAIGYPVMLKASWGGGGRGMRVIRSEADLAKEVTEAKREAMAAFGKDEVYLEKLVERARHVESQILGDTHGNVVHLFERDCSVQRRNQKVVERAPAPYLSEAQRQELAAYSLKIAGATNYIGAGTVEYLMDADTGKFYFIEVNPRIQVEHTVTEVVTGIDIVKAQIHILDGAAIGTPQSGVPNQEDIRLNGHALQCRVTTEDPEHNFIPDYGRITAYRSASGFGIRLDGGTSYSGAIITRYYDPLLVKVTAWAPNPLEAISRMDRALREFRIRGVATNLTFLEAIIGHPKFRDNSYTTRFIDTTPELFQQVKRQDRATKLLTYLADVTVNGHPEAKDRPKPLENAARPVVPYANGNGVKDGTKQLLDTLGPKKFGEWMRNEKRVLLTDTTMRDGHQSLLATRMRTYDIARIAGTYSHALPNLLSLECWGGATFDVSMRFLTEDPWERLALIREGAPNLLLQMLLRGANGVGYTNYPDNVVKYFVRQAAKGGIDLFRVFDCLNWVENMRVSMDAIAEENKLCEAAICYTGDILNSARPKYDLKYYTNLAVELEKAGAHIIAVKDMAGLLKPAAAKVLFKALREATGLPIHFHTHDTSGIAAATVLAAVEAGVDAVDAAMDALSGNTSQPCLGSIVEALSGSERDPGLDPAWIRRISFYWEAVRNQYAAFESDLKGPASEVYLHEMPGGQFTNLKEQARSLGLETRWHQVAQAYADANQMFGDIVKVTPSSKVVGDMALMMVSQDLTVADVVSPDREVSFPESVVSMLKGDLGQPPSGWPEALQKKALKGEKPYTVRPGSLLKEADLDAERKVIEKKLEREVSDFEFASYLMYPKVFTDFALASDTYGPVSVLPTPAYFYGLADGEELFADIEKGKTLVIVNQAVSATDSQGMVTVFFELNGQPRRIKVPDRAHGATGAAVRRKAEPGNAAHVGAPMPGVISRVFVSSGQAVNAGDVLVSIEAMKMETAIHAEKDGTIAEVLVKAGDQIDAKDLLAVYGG
# [2] = target: T2, Rhizobium etli pyruvate carboxylase (RePC) (Rhizobium etli, UniProt Q2K340, R472K); assay: coupled spectrophotometric assay; format: biochemical
# T2 sequence (Q2K340 1-1154 R472K): T1 sequence (Q2K340 1-1154) with R472K
smiles,measurement,setting,value
N[C@@H](CC(=O)O)C(=O)O [L-aspartate],Ki,[1],5 ± 0.6 mM
same,Ki,[2],7 ± 1 mM

# Source: paper PMC3567212 (Biochemistry, 2012)
